Results: patent US20230192677A1, “CYP11A1 INHIBITORS” (ORION CORPORATION, priority 2020, published 2023)

The compounds below were run against T1, CYP11A1 (Homo sapiens, UniProt P05108) (assay: CYP11A1 inhibition, isocaproic acid release assay (IARA) in H295R cells). Settings: human H295R adrenocortical carcinoma cell line, three days, 3 nM [24,25-3H]-labelled cholesterol; read-out: IC50 on CYP11A1 inhibition (Group).
T1 construct: human H295R adrenocortical carcinoma cell line was used as source of enzyme; endogenous in cells; host or cells: H295R human adrenocortical carcinoma cells
T1 sequence (P05108 40-521): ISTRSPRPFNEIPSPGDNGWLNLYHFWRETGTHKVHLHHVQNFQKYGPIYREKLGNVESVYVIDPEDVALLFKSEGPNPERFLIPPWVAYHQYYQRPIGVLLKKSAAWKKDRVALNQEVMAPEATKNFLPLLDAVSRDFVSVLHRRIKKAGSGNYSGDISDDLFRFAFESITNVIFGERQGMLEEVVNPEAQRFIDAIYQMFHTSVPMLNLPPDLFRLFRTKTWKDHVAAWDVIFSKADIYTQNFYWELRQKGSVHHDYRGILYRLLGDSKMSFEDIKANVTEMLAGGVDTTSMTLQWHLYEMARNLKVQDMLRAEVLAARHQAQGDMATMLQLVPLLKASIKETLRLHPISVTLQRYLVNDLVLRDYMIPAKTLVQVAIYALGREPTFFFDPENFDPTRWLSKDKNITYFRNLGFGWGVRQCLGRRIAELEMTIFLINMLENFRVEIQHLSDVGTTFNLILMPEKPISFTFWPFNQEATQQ
Type: cell-based
Description: The ability of the test compounds to inhibit conversion of cholesterol to pregnenolone and isocaproic acid was measured by modification of isocaproic acid release assay (IARA) described by Ruangwises et al. (Biology of Reproduction 1991; 45(1):143-50) except that human H295R adrenocortical carcinoma cell line was used as source of enzyme and extraction was done with dextran-coated charcoal suspension (Isomaa, V. et al., Endocrinology 1982; 111(3):833-843). […] To determine the half maximal inhibitory concentration (IC50) of the test compounds on CYP11A1 inhibition, the cells were treated for three days with increasing concentrations of the test compounds in the presence of 3 nM [24,25-3H]-labelled cholesterol (American Radiolabelled Chemicals). The final DMSO concentration was 1%. Cell culture medium was extracted with dextran-coated charcoal suspension and the radiolabelled isocaproic acid was determined by mixing 100 μl of supernatant fraction in 200 μl of scintillation fluid (OptiPhase SuperMix, Perkin Elmer). Radioactivity was measured using a Microbeta scintillation counter (1450 MicroBeta Trilux, Wallac). All the test compounds were studied at 10 concentrations in duplicates.

IC50 [µM]	Compound
< 0.1	CC(O)c1ccc(COc2ccc(CN3Cc4ccccc4C3)cc2S(C)(=O)=O)cc1 (stereo not shown) [Compound 92b, 1-(4-((4-(Isoindolin-2-ylmethyl)-2-(methylsulfonyl)phenoxy)methyl)phenyl)-ethanol]
0.101 to 0.2	CCC(=O)N1CCC(COc2ccc(CN3Cc4ccccc4C3)cc2S(C)(=O)=O)CC1 [Compound 70]
< 0.1	CS(=O)(=O)c1cc(CN2Cc3ccccc3C2)ccc1OCc1ccc([S@@](C)(=N)=O)cc1 [Compound 96, (S)-Imino(4-((4-(isoindolin-2-ylmethyl)-2-(methylsulfonyl)phenoxy)methyl)-phenyl)(methyl)-λ^6-sulfanone]
0.101 to 0.2	CO/N=C(\C)c1ccc2c(c1)CN(Cc1cc(=O)c(OCC3CCN(S(C)(=O)=O)CC3)co1)C2 [Compound 91, (E)-2-((5-(1-(Methoxyimino)ethyl)isoindolin-2-yl)methyl)-5-((1-(methylsulfonyl)piperidin-4-yl)methoxy)-4H-pyran-4-one]
< 0.1	CC(C)C(=O)N1CCC(COc2ccc(CN3Cc4ccccc4C3)cc2S(C)(=O)=O)CC1 [Compound 73, 1-(4-((4-(Isoindolin-2-ylmethyl)-2-(methylsulfonyl)phenoxy)methyl)piperidin-1-yl)-2-methylpropan-1-one]
< 0.1	CS(=O)(=O)c1ccc(COc2ccc(CN3Cc4ccccc4C3)cc2S(C)(=O)=O)cc1 [Compound 82, 2-(3-(Methylsulfonyl)-4-((4-(methylsulfonyl)benzyl)oxy)benzyl)isoindoline]
0.101 to 0.2	CS(=O)(=O)c1cc(C(N2Cc3ccccc3C2)C(F)(F)F)ccc1OCC1CCN(S(C)(=O)=O)CC1 (stereo not shown) [Compound 21, 2-(2,2,2-Trifluoro-1-(3-(methylsulfonyl)-4-((1-(methylsulfonyl)piperidin-4-yl)methoxy)phenyl)ethyl)isoindoline]
< 0.1	CS(=N)(=O)c1ccc(COc2ccc(CN3Cc4ccc(C(F)(F)F)cc4C3)cc2S(C)(=O)=O)cc1 (stereo not shown) [Compound 85, Imino(methyl)(4-((2-(methylsulfonyl)-4-((5-(trifluoromethyl)isoindolin-2-yl)methyl)phenoxy)methyl)phenyl)-λ^6-sulfanone]
< 0.1	CS(=O)(=O)N1CCC(COc2coc(CN3Cc4ccc(-c5ccon5)cc4C3)cc2=O)CC1 [Compound 5, 2-((5-(Isoxazol-3-yl)isoindolin-2-yl)methyl)-5-((1-(methylsulfonyl)piperidin-4-yl)methoxy)-4H-pyran-4-one]
0.101 to 0.2	O=c1cc(CN2CCc3ccccc3C2)occ1OCC1CC2(C1)CN(S(=O)(=O)c1ccc(F)cc1)C2 [Compound 58, 2-((3,4-Dihydroisoquinolin-2(1H)-yl)methyl)-5-((2-((4-fluorophenyl)sulfonyl)-2-azaspiro[3.3]heptan-6-yl)methoxy)-4H-pyran-4-one]
< 0.1	CS(=O)(=O)c1cc(CN2Cc3ccccc3C2)ccc1OCC1CCN(S(C)(=O)=O)CC1 [Compound 65, 2-(3-(Methylsulfonyl)-4-((1-(methylsulfonyl)piperidin-4-yl)methoxy)benzyl)-isoindoline]

The next lines start with the compound.

Compound	IC50 [µM]
CS(=O)(=O)c1cc(CN2Cc3ccc(-c4nnco4)cc3C2)ccc1OCC1CCN(S(C)(=O)=O)CC1 [Compound 10, 2-(2-(3-(Methylsulfonyl)-4-((1-(methylsulfonyl)piperidin-4-yl)methoxy)benzyl)-isoindolin-5-yl)-1,3,4-oxadiazole]	0.101 to 0.2
CC(=O)c1ccc2c(c1)CN(Cc1cc(=O)c(OCC3CCN(S(C)(=O)=O)CC3)co1)C2 [Compound 89, 2-((5-Acetylisoindolin-2-yl)methyl)-5-((1-(methylsulfonyl)piperidin-4-yl)-methoxy)-4H-pyran-4-one]	< 0.1
CC(=O)N1CCC(COc2ccc(CN3Cc4ccccc4C3)cc2S(C)(=O)=O)CC1 [Compound 87, 1-(4-((4-(Isoindolin-2-ylmethyl)-2-(methylsulfonyl)phenoxy)methyl)piperidin-1-yl)ethan-1-one]	0.201 to 2
CN(C)C(=O)c1ccc(COc2ccc(CN3Cc4ccccc4C3)cc2S(C)(=O)=O)cc1 [Compound 68, 4-((4-(Isoindolin-2-ylmethyl)-2-(methylsulfonyl)phenoxy)methyl)-N,N-dimethylbenzamide]	< 0.1
CS(=O)(=O)c1cc(CN2Cc3ccccc3C2)ccc1OCC1CCOCC1 [Compound 83, 2-(3-(Methylsulfonyl)-4-((tetrahydro-2H-pyran-4-yl)methoxy)benzyl)isoindoline]	0.201 to 2
CS(=O)(=O)N1CCC(COc2coc(C(N3Cc4ccccc4C3)C(F)(F)F)cc2=O)CC1 (stereo not shown) [Compound 20, 5-((1-(Methylsulfonyl)piperidin-4-yl)methoxy)-2-(2,2,2-trifluoro-1-(isoindolin-2-yl)ethyl)-4H-pyran-4-one]	0.201 to 2
O=c1cc(CN2CCc3ccccc3C2)occ1OCC1CC2(C1)CN(c1ncccn1)C2 [Compound 50, 2-((3,4-Dihydroisoquinolin-2(1H)-yl)methyl)-5-((2-(pyrimidin-2-yl)-2-azaspiro-[3.3]heptan-6-yl)methoxy)-4H-pyran-4-one]	0.201 to 2
CS(=O)(=O)N1CC2(CC(COc3coc(CN4CCc5ccccc5C4)cc3=O)C2)C1 [Compound 62, 2-((3,4-Dihydroisoquinolin-2(1H)-yl)methyl)-5-((2-(methylsulfonyl)-2-azaspiro[3.3]heptan-6-yl)methoxy)-4H-pyran-4-one]	0.201 to 2
CC(C)(O)c1ccc(COc2ccc(CN3Cc4ccccc4C3)cc2S(C)(=O)=O)cc1 [Compound 86, 2-(4-((4-(Isoindolin-2-ylmethyl)-2-(methylsulfonyl)phenoxy)methyl)phenyl)-propan-2-ol]	< 0.1
CS(=N)c1ccc(COc2ccc(CN3Cc4ccccc4C3)cc2S(C)(=O)=O)cc1 (stereo not shown) [Compound 84, (4-((4-(Isoindolin-2-ylmethyl)-2-(methylsulfonyl)phenoxy)methyl)phenyl)-(methyl)-λ^4-sulfanimine]	< 0.1
CCS(=O)(=O)c1ccc(COc2ccc(CN3Cc4ccccc4C3)cc2S(C)(=O)=O)cc1 [Compound 76, 2-(4-((4-(Ethylsulfonyl)benzyl)oxy)-3-(methylsulfonyl)benzyl)isoindoline]	< 0.1
CS(=O)(=O)N1CCC(COc2ccc(CN3Cc4ccccc4C3)cc2S(=O)(=O)C2CC2)CC1 [Compound 26, 2-(3-(Cyclopropylsulfonyl)-4-((1-(methylsulfonyl)piperidin-4-yl)methoxy)-benzyl)isoindoline]	0.101 to 0.2
CS(=O)(=O)N1CCC(COc2coc(CN3Cc4ccc(-c5ccno5)cc4C3)cc2=O)CC1 [Compound 4, 2-((5-(Isoxazol-5-yl)isoindolin-2-yl)methyl)-5-((1-(methylsulfonyl)piperidin-4-yl)methoxy)-4H-pyran-4-one]	0.101 to 0.2
CC[S@](=N)(=O)c1ccc(COc2ccc(CN3Cc4ccccc4C3)cc2S(C)(=O)=O)cc1 [Compound 97, (S)-Ethyl(imino)(4-((4-(isoindolin-2-ylmethyl)-2-(methylsulfonyl)phenoxy)-methyl)phenyl)-λ^6-sulfanone]	< 0.1

Each compound was assayed against recombinant human cytochrome P450 (CYP) CYP3A4 enzyme (Homo sapiens, UniProt P08684) (assay: Formation of reactive metabolites, trapping with GSH, KCN and SCA). Settings: test compound 10 μM, recombinant human CYP3A4, NADPH, 1 hour, pH 7.4.
Sequence of recombinant human cytochrome P450 (CYP) CYP3A4 enzyme (P08684 whole entry): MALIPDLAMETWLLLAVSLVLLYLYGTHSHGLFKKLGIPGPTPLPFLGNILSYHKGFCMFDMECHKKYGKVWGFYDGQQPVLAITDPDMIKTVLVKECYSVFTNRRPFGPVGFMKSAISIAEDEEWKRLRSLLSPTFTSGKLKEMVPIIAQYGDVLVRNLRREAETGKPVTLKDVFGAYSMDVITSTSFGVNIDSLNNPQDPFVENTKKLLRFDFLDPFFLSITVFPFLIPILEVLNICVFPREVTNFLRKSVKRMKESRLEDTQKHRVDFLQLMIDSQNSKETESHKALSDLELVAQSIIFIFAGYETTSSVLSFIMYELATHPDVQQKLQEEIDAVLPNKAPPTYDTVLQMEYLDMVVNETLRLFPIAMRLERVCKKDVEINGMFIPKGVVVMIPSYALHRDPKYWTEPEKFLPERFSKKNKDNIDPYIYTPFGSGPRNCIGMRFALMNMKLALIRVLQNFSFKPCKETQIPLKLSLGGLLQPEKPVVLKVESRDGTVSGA

Compound	Number of CN trapped metabolites	Number of GSH trapped metabolites	Number of SCA trapped metabolites
C[C@H](c1cc(=O)c(OCC2CCN(S(C)(=O)=O)CC2)co1)N1Cc2ccccc2[C@H]2C[C@H]21 (relative stereo) [Compound 24b, 5-((1-(Methylsulfonyl)piperidin-4-yl)methoxy)-2-((R*)-1-((1aR*,7bR*)-1,1a,3,7b-tetrahydro-2H-cyclopropa[c]isoquinolin-2-yl)ethyl)-4H-pyran-4-one]	2 (trace)	0	0
CS(=O)(=O)c1cc(CN2Cc3ccc(-c4nnco4)cc3C2)ccc1OCC1CCN(S(C)(=O)=O)CC1 [Compound 10, 2-(2-(3-(Methylsulfonyl)-4-((1-(methylsulfonyl)piperidin-4-yl)methoxy)benzyl)-isoindolin-5-yl)-1,3,4-oxadiazole]	1 (trace)	0	2 (trace)
CC(=O)c1ccc2c(c1)CN(Cc1cc(=O)c(OCC3CCN(S(C)(=O)=O)CC3)co1)C2 [Compound 89, 2-((5-Acetylisoindolin-2-yl)methyl)-5-((1-(methylsulfonyl)piperidin-4-yl)-methoxy)-4H-pyran-4-one]	0	0	1 (trace)
CC(c1cc(=O)c(OCC2CCN(S(C)(=O)=O)CC2)co1)N1Cc2ccc(-c3ncco3)cc2C1 (stereo not shown) [Compound 17b, 5-((1-(Methylsulfonyl)piperidin-4-yl)methoxy)-2-(1-(5-(oxazol-2-yl)isoindolin-2-yl)ethyl)-4H-pyran-4-one]	0	0	1 (trace)
